Each structure is given as a SMILES string.

The target in one test is cdc2/cyclinB (Homo sapiens, UniProt P06493). The test is described as follows: Cyclin-Dependent Kinase Assay cdc2/cyclinB. The class given is biochemical. On the procedure: (§1) Cyclin-Dependent Kinase Assays (cdk2/cyclinE, cdk2/cyclinA, cdc2/cyclinB)
(§2) All components except the ATP were added to the wells, and the plate was placed on a plate mixer for 2 minutes. The reaction was begun by addition of [^32P]ATP, and the plate was incubated at 25°C for 15 minutes. The reaction was terminated by addition of 0.1 mL of 20% TCA. The plate was kept at 4°C for at least 1 hour to allow the substrate to precipitate. The wells were then washed five times with 0.2 mL of 10% TCA and ^32P incorporation determined with a beta plate counter (Wallac Inc., Gaithersburg, MD).

Test [1] addresses T1, FGF-1 (flg) receptor tyrosine kinase (Homo sapiens, UniProt P11362).
T1 construct: amplify a fragment of DNA that codes for the intracellular tyrosine kinase domain; made in house; host or cells: SF9 insect cells (baculovirus); crude cell lysate used
The test is described as follows: FGF Receptor Tyrosine Kinase Assay. Conditions: glutamate-tyrosine co-polymer substrate, 50 µM ATP. In kind it is biochemical. On the procedure: (§3) PDGF and FGF Receptor Tyrosine Kinase Assays
PCR primers were designed to amplify a fragment of DNA that codes for the intracellular tyrosine kinase domain. The fragment was inserted into a baculovirus vector, cotransfected with AcMNPV DNA, and the recombinant virus isolated. SF9 insect cells were infected with the virus to overexpress the protein, and the cell lysate was used for the assay. Assays were performed in 96-well plates (100 µL/incubation/well), and conditions were optimized to measure the incorporation of ^32P from γ^32P-ATP into a glutamate-tyrosine co-polymer substrate. Briefly, to each well was added 82.5 µL of incubation buffer containing 25 mM Hepes (pH 7.0), 150 mM NaCl, 0.1% Triton X-100, 0.2 mM PMSF, 0.2 mM Na3VO4, 10 mM MnCl2, and 750 µg/mL of Poly (4:1) glutamate-tyrosine followed by 2.5 µL of inhibitor and 5 µL of enzyme lysate (7.5 µg/µL FGF-TK or 6.0 µg/µL PDGF-TK) to initiate the reaction. […] The reaction was terminated by the addition of 100 µL of 30% trichloroacetic acid (TCA) containing 20 mM sodium pyrophosphate and precipitation of material onto glass fiber mats (Wallac). […] Nonspecific activity was defined as radioactivity retained on the filters following incubation of samples with buffer alone (no enzyme). Specific enzymatic activity (enzyme plus buffer) was defined as total activity minus nonspecific activity. […]

Test [2] concerns the target T2, PDGF-β receptor tyrosine kinase (Mus musculus, UniProt P05622).
T2 construct: amplify a fragment of DNA that codes for the intracellular tyrosine kinase domain; made in house; host or cells: SF9 insect cells (baculovirus); crude cell lysate used
The test is described as follows: PDGF Receptor Tyrosine Kinase Assay. The class given is biochemical. The settings on record: glutamate-tyrosine co-polymer substrate, 50 µM ATP.
Source text: as §3
Full-length cDNAs for the mouse PDGF-β and human FGF-1 (flg) receptor tyrosine kinases were obtained from J. Escobedo and prepared as described in J. Biol. Chem., 1991;262:1482-1487. PCR primers were designed to amplify a fragment of DNA that codes for the intracellular tyrosine kinase domain. The fragment was inserted into a baculovirus vector, cotransfected with AcMNPV DNA, and the recombinant virus isolated. SF9 insect cells were infected with the virus to overexpress the protein, and the cell lysate was used for the assay. Assays were performed in 96-well plates (100 µL/incubation/well), and conditions were optimized to measure the incorporation of ^32P from γ^32P-ATP into a glutamate-tyrosine co-polymer substrate. Briefly, to each well was added 82.5 µL of incubation buffer containing 25 mM Hepes (pH 7.0), 150 mM NaCl, 0.1% Triton X-100, 0.2 mM PMSF, 0.2 mM Na3VO4, 10 mM MnCl2, and 750 µg/mL of Poly (4:1) glutamate-tyrosine followed by […] of inhibitor and 5 µL of enzyme lysate (7.5 µg/µL FGF-TK or 6.0 µg/µL PDGF-TK) to initiate the reaction. Following a 10 minute incubation at 25°C, […] of γ^32P-ATP (0.4 µCi plus 50 µM ATP) was added to each well, and samples were incubated for an additional 10 minutes at 25°C. The reaction was terminated by the addition of 100 µL of 30% trichloroacetic acid (TCA) containing 20 mM sodium pyrophosphate and precipitation of material onto glass fiber mats (Wallac). Filters were washed three times with 15% TCA containing 100 mM sodium pyrophosphate, and the radioactivity retained on the filters counted in a Wallac 1250 Betaplate reader. Nonspecific activity was defined as radioactivity retained on the filters following incubation of samples with buffer alone (no enzyme). Specific enzymatic activity (enzyme plus buffer) was defined as total activity minus nonspecific activity. […]

The next test has as its target cdk2/cyclinA (Homo sapiens, UniProt P24941). The test is described as follows: Cyclin-Dependent Kinase Assay cdk2/cyclinA. In kind it is biochemical. On the procedure: as §1, §2
The target of the next test is cdk2/cyclinE (Homo sapiens, UniProt P24941). The test is described as follows: Cyclin-Dependent Kinase Assay cdk2/cyclinE. In kind it is biochemical. How it is done: as §1, §2
Another test concerns the target cdk4/D (Homo sapiens, UniProt P11802). The test is described as follows: Cyclin-Dependent Kinase 4 (cdk4) Assay. The class given is biochemical. On the procedure: A typical assay, for instance, measures inhibitory activity against the cyclin D dependent kinase 4 enzyme (cdk4/D). […] The cdk4 assay was carried out as follows.
Cyclin-Dependent Kinase 4 (cdk4) Assay
Enzyme assays for IC50 determinations (Tables 1 and 2) and kinetic evaluation were performed in 96 well filter plates (Millipore MADVN6550). The total volume was 0.1 mL containing a final concentration of 20 mM TRIS (tris[hydroxymethyl]aminomethane), at pH 7.4, 50 mM NaCl, 1 mM dithiothreitol, 10 mM MgCl2, 25 µM ATP containing 0.25 µCi of [^32P]ATP, 20 ng of cdk4, 1 µg of retinoblastoma, and appropriate dilutions of a compound of the present invention. All components except the ATP were added to the wells, and the plate was placed on a plate mixer for 2 minutes. The reaction was started by adding [^32P]ATP and the plate was incubated at 25°C for 15 minutes. The reaction was terminated by addition of 0.1 mL of 20% trichloroacetic acid (TCA). The plate was kept at 4°C for at least 1 hour to allow the substrate to precipitate. The wells were then washed five times with 0.2 mL of 10% TCA and ^32P incorporation was determined with a beta plate counter (Wallac Inc., Gaithersburg, MD).

In test [3] the test system is human umbilical vein endothelial cells. The test is described as follows: Human Umbilical Vein Endothelial Cell (HUVEC) Proliferation Assay. The class given is cell-based. The settings on record: 96 h, four days incubation, Sulphorhodamine B staining. How it is done: The compounds of Formula I are useful for treating cell proliferative disorders concerning angiogenesis and have been evaluated in a human umbilical vein endothelial cell in vitro assay. The assay described below is used to determine the anti-proliferative effects of the invention compounds on human umbilical vein endothelial cells, and the results are shown in Table 7.
Human Umbilical Vein Endothelial Cell (HUVEC) Proliferation Assay
Ninety-six well tissue culture plates are seeded with 100 µL of cells in all wells of rows A->G with row H remaining empty as a blank. HUVEC (Clonetics, San Diego, CA) are grown in endothelial growth medium (EGM media, Clonetics), containing 2% fetal bovine serum. The cell seed density for HUVEC cells is 20,000 per mL. C6 cells (ATCC Cat. No. CCL-107) are seeded at 6000 per mL in F10 medium (nutrient mixture Hemes) supplemented with 15% horse serum, 2.5% fetal bovine serum, and 6.0 mL 200 mM Glutamine per 600 mL medium. A90 cells (Suny, Buffalo, NY) are also seeded at 6000 per mL, but they are grown in RPMI 1640 (Roswell Park Memorial Institute) plus 10% fetal bovine serum. Unless noted otherwise, tissue culture media and components are from GIBCO. The cells are allowed to incubate at 37°C, 5% CO2, and 100% relative humidity for 16-24 hours.
Invention compounds are prepared by dissolving them in DMSO at a concentration of 5 mM, followed by dilution to 50 µM in EGM media. One hundred microliters of the compounds are applied to duplicate wells in column 1 of the previously prepared cell plates. Column 1 row H receives 100 µL of EGM media. The compounds in column 1 are diluted across the plates using serial twofold dilutions.
The plates are incubated as above for an additional four days before being stained with Sulphorhodamine B. Staining is performed as follows: The media is removed from the plates, and the cells are fixed using 10% trichloroacetic acid for 30 minutes at 4°C. Following fixation, the plates are washed five times with distilled water after which 100 µL of Sulphorhodamine B is added to each well. Sulphorhodamine B is dissolved in 1% acetic acid to a concentration of .075%. Following staining, excess stain is removed from the wells, and the plates are washed four times with 1% acetic acid. The plates are allowed to air dry before the bound dye is solubilized in 100 µL of 10 mM unbuffered TRIS base. Absorbance is measured on a 96 well plate reader at […] using a reference filter wavelength of 630 nm. […] Sulphorhodamine B and TRIS are from Sigma Chemical Company. Acetic acid and trichloroacetic acid are from Mallinckrodt AR.

T2 sequence (P05622 599-961 limits assumed): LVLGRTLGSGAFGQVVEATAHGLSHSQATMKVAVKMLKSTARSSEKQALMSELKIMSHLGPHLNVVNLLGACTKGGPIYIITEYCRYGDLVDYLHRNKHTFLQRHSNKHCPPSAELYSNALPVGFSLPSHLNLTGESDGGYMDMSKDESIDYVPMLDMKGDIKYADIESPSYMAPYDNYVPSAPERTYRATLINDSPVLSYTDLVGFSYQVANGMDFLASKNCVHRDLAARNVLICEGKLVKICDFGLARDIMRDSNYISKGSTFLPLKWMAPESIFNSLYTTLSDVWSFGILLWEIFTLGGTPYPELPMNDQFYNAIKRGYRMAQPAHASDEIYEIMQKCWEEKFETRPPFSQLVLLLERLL
T1 sequence (P11362 478-767 limits assumed): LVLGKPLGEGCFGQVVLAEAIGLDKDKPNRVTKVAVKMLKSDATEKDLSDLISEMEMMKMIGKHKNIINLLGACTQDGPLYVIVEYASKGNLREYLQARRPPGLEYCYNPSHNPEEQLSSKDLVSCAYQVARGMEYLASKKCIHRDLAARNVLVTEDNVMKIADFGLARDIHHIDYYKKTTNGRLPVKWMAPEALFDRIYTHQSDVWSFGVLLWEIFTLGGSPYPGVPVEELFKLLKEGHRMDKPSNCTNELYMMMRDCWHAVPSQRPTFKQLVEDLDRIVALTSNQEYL
Chain of cdk4/D (P11802 whole entry): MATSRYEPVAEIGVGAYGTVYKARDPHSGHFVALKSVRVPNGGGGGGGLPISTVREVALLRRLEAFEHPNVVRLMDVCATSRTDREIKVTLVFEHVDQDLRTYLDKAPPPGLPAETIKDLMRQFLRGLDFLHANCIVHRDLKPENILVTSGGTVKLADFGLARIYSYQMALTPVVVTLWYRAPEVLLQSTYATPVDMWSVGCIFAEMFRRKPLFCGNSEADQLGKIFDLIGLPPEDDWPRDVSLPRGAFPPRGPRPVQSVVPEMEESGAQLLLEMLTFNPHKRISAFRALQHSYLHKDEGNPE
Chain of cdk4/D (P24385 whole entry, further chain): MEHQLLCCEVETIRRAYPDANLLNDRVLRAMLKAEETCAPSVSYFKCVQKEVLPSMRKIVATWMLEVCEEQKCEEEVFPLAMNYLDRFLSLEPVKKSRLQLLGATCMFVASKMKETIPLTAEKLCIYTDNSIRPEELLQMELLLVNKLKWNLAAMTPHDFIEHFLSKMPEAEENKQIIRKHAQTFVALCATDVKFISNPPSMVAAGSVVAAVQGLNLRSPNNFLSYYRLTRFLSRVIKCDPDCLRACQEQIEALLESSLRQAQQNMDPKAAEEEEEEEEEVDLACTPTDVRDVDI
Chain of cdc2/cyclinB (P06493 whole entry): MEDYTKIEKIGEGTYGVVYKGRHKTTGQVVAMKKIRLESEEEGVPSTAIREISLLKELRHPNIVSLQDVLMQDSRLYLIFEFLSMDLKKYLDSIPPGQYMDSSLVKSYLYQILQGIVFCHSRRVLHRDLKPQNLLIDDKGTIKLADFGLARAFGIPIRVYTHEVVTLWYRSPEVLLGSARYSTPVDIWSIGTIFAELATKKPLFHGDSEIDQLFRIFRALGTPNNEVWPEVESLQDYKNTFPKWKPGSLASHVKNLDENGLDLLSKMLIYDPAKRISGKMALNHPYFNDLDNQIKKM
Chain of cdc2/cyclinB (P14635 whole entry, further chain): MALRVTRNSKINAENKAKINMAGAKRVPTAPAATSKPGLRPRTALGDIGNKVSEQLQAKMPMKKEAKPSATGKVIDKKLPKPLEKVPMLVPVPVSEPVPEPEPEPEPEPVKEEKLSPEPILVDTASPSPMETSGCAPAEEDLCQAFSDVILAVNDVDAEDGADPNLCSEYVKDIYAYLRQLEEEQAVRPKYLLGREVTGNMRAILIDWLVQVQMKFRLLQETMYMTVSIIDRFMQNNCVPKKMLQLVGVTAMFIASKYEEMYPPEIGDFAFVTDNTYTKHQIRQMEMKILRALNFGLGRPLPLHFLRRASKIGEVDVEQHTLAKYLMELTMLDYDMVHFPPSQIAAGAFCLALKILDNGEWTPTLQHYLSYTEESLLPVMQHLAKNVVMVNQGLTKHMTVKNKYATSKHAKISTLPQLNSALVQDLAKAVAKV

As to `O=c1ncc2cnc(Nc3ccc(-n4cccn4)cc3)nc2n1C1CCCC1` [Example 36, 1-Cyclopentyl-7-[4-(pyrazol-1-yl)phenylamino]pyrimido[4,5-d]pyrimidin-2(1H)-one], the half-inhibitory concentration (IC50) is 16100 nM against cdc2/cyclinB; over 50 µM in test [1]; over 50 µM in test [2]; 1330 nM against cdk2/cyclinA; 2440 nM on cdk2/cyclinE; 435 nM at cdk4/D.
Regarding `CCN(CC)CCOc1ccc(Nc2ncc3c(n2)N(CC)C(=O)N(c2cc(OC)cc(OC)c2)C3)cc1` [Example 53a, 7-[4-(2-Diethylamino-ethoxy)-phenylamino]-3-(3,5-dimethoxy-phenyl)-1-ethyl-3,4-dihydro-pyrimido[4,5-d]pyrimidin-2(1H)-one], the IC50 in test [1] was 0.02 µM; in test [2], under 0.5 µM.
On to `CCN1C(=O)N(c2cc(OC)cc(OC)c2)Cc2cnc(NCCCN3CCN(C)CC3)nc21` [Example 57, 3-(3,5-Dimethoxy-phenyl)-1-ethyl-7-[3-(4-methyl-piperazin-1-yl)-propylamino]-3,4-dihydro-pyrimido[4,5-d]pyrimidin-2(1H)-one], for which the IC50 in test [3] is 152 nM.
The same measure, in the same setting: the same measure for `CCN1C(=O)N(c2cc(OC)cc(OC)c2)Cc2cnc(NCCCCN3CCN(C)CC3)nc21` [Example 58, 3-(3,5-Dimethoxy-phenyl)-1-ethyl-7-[4-(4-methyl-piperazin-1-yl)-butylamino]-3,4-dihydro-pyrimido[4,5-d]pyrimidin-2(1H)-one]: 134 nM; for `CCN1C(=O)N(c2cc(OC)cc(OC)c2)Cc2cnc(NCCCCCN3CCN(C)CC3)nc21` [Example 59, 3-(3,5-Dimethoxy-phenyl)-1-ethyl-7-[5-(4-methyl-piperazin-1-yl)-pentylamino]-3,4-dihydro-pyrimido[4,5-d]pyrimidin-2(1H)-one]: 112 nM; for `CCN(CC)CCCNc1ncc2c(n1)N(CC)C(=O)N(c1cc(OC)cc(OC)c1)C2` [Example 60, 7-(3-Diethylamino-propylamino)-3-(3,5-dimethoxy-phenyl)-1-ethyl-3,4-dihydro-pyrimido[4,5-d]pyrimidin-2(1H)-one]: 943 nM.
The same measure, in the same setting: then `CCN(CC)CCCCNc1ncc2c(n1)N(CC)C(=O)N(c1cc(OC)cc(OC)c1Cl)C2` [Example 65, 3-(2-Chloro-3,5-dimethoxy-phenyl)-7-(4-diethylamino-butylamino)-1-ethyl-3,4-dihydro-pyrimido[4,5-d]pyrimidin-2(1H)-one], with 36 nM.
Take `C=CCn1c(=O)c2cnc(Nc3ccc(N4CCN(C)CC4)cc3)nc2n(C(C)C)c1=O` [Example 70, 3-Allyl-1-isopropyl-7-[4-(4-methylpiperazin-1-yl)phenylamino]-1H-pyrimido[4,5-d]pyrimidine-2,4-dione]: the concentration for half-maximal inhibition (IC50) on cdc2/cyclinB is over 40000 nM; in test [1], over 50 µM; in test [2] it was over 50 µM; against cdk2/cyclinA it was over 40000 nM; against cdk4/D, 3450 nM.
